# Laboratory results: patent US20140214336A1, “SYSTEMS AND METHODS FOR NETWORK-BASED BIOLOGICAL ACTIVITY ASSESSMENT” (PHILIP MORRIS PRODUCTS S.A., priority 2011, published 2014)
# Assays:
# [1] = test system: Normal human bronchial epithelial (NHBE) cells; experiment: Cell cycle arrest and S-phase re-entry in NHBE cell culture (fluorescent S-phase labeling / FACS); format: cell-based
# Description: (§1) The systems and methods described herein have been tested using a well-understood cell culture experiment. […] The treated cells were then allowed to re-enter the cell cycle by removal of the CDKI from the media and washing. Re-entry of the cell cycle was experimentally confirmed by labeling the cells fluorescently in S-phase at 2, 4, 6 and 8 hours after the CDKI was removed and the cells were washed. The gene transcription profiles of cells that were sampled 2, 4, 6, and 8 hours after the removal of the CDKI, were obtained. Profiles of cells that were continuously exposed to CDKI in media were also obtained. To identify biological processes and mechanisms that were differentially activated when CDKI was removed, network perturbation amplitude scores were calculated using gene transcription profiles of the washed cells obtained at various time point. For the computation of a NPA score for the perturbation associated with the removal of CDKI, a cell cycle subnetwork that comprises 127 nodes and 240 edges, was used. It is a subnetwork of the cell proliferation network model published in […] et al. (2011, “A computable cellular stress network model for non-diseased pulmonary and cardiovascular tissue” BMC Syst Biol. Oct 19; 5:168, which is incorporated herein by reference in its entirety). […]
# [2] = test system: cell cycle subnetwork in NHBE cells; experiment: Network perturbation amplitude (NPA) score on the cell cycle subnetwork, from gene transcription profiles of NHBE cells; format: cell-based, human; conditions: from 2-hour to 8-hour time point after removal of CDKI, versus cells continuously exposed to CDKI; subnetwork of 127 nodes and 240 edges
# Description: as §1
smiles,measurement,setting,value
CC(=O)c1c(C)c2cnc(Nc3ccc(N4CCNCC4)cn3)nc2n(C2CCCC2)c1=O [PD-0332991],"number of cells in S-phase (FACS analysis, FIG. 17)","[1]; 2, 4, 6 and 8 hours after the CDKI was removed and the cells were washed",increase
same,effect on cell cycle,[1]; NHBE cells exposed to the CDKI in media,arrests the cells in G1
same,NPA scores (FIG. 18),[2],increase
